# Values of other authors as cited in PMC4206604 (Journal of pharmaceutical sciences, 2014).
# Target: T1, NTCP (Homo sapiens, UniProt Q14973)
# T1 sequence (Q14973 1-349): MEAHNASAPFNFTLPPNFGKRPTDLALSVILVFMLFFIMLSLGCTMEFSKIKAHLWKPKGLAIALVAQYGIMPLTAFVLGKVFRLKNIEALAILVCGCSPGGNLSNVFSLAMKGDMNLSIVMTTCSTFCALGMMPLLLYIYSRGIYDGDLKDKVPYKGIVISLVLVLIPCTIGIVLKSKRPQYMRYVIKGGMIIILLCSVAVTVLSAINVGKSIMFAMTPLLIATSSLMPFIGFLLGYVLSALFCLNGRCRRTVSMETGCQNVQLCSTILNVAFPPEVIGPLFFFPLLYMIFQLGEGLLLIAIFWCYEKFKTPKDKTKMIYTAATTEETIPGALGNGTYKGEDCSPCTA
# Details: read-out: NTCP Km; same cell line
smiles,measurement,value
C[C@H](CCC(=O)NCCS(=O)(=O)O)[C@H]1CC[C@H]2[C@@H]3[C@H](O)C[C@@H]4C[C@H](O)CC[C@]4(C)[C@H]3C[C@H](O)[C@]12C [taurocholate],Km,5.31 µM
